Laboratory results reported in publication PMC5378332, “Molecular actions of two synthetic brassinosteroids, iso-carbaBL and 6-deoxoBL, which cause altered physiological activities between Arabidopsis and rice” (PLoS ONE, 2017).

Key:
rice BRI1 LRR17-ID-LRR18 = biological target: T1, rice BRI1 LRR17-ID-LRR18 (Oryza sativa, UniProt Q942F3); assay: competition with BPCS photoaffinity crosslinking, anti-biotin immunoblot; format: binding; conditions: dose-dependent competition; GST-normalised
T1 construct: extracellular LRR17-island domain-LRR18 fragment, amino acids 484-600; N-terminal GST fusion from pGEX6P-1, GST kept; glutathione-Sepharose purified
T1 sequence (Q942F3 484-600): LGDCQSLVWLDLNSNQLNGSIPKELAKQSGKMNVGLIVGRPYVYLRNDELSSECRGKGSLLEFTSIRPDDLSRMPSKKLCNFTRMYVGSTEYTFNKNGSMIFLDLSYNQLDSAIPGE

[1] = biological target: T2, Arabidopsis BRI1 LRR21-ID-LRR22 (Arabidopsis thaliana, UniProt O22476); assay: as above; format: binding; conditions: dose-dependent competition; GST-normalised
T2 construct: extracellular LRR21-island domain-LRR22 fragment, amino acids 556-673; N-terminal GST fusion from pGEX6P-1, GST kept; glutathione-Sepharose purified
T2 sequence (O22476 556-673): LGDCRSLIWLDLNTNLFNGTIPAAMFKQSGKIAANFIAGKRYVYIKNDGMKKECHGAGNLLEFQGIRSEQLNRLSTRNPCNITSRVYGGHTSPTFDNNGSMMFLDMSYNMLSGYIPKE

SMILES	competition with BPCS photoaffinity crosslinking, anti-biotin immunoblot (rice BRI1 LRR17-ID-LRR18)	competition with BPCS photoaffinity crosslinking, anti-biotin immunoblot [1]
CC(C)[C@H](C)[C@@H](O)[C@H](O)[C@@H](C)[C@H]1CC[C@H]2[C@@H]3COC(=O)[C@H]4C[C@H](O)[C@H](O)C[C@]4(C)[C@H]3CC[C@]12C [BL, (22R,23R,24S)-2α,3α,22,23-tetrahydroxy-24-methyl-B-homo7-oxa-5α-cholestan-6-one]	BL, the positive control, inhibited the binding of BPCS to both Arabidopsis and rice BRI1	
CC(C)[C@H](C)[C@@H](O)[C@H](O)[C@@H](C)[C@H]1CC[C@H]2[C@@H]3CC(=O)C[C@H]4C[C@@H](O)[C@@H](O)C[C@]4(C)[C@H]3CC[C@]12C [iso-carbaBL]	decreased the binding of BPCS not only to Arabidopsis BRI1, but also to rice BRI1	decreased the binding of BPCS not only to Arabidopsis BRI1, but also to rice BRI1
